Key:
[1] = test system: MV4-11; test: Cytotoxicity towards MV4-11 cell line; assay type: cell-based; details: Homo sapiens
Description: (§1) In various embodiments, the compounds of the disclosure are those in which show IC50 values in cytotoxicity experiments towards cells lines MV4-11 and U937 of >20 μM, 10-20 μM, 5-10 μM, 1-5 μM, or <1 μM.
(§2) The IC50 is divided into 5 categories: A<1 μM, B 1-5 μM, C 5-10 μM, D 10-20 μM, and E>20 μM.

[2] = test system: U-937; test: Cytotoxicity towards U-937 cell line; assay type: cell-based; details: Homo sapiens
Description: as §1, §2

SMILES	IC50 [1] [nM]	IC50 [2] [nM]
Cc1cc(SCCNC(=O)c2ccc(-n3cccn3)c(C#Cc3ccccc3)c2)[nH]n1 [TT-02691]	10000 to 20000	5000 to 10000
O=C1CN(c2ncc(C(=O)NCCCc3cn[nH]c3)cc2C#Cc2ccc(F)cc2)CCN1 [TT-03768]	< 1000	
O=C(NCCCn1ccnc1)c1ccc(-n2cccn2)c(C#Cc2ccc(Cl)cc2)c1 [TT-03221]	< 1000	< 1000
Cn1ccnc1CNC(=O)c1ccc(-n2cccn2)c(C#Cc2ccccc2)c1 [TT-02713]	> 20000	< 1000
O=C(NCCCc1cn[nH]c1)c1ccc(-n2ccnc2)c(C#Cc2ccc(F)cc2)c1 [TT-03627]	< 1000	< 1000
O=C(NCCCc1cn[nH]c1)c1ccc(-n2cccn2)c(C#Cc2ccc(C(F)(F)F)cc2)c1 [TT-03324]	1000 to 5000	1000 to 5000
O=C(NCCCc1cn[nH]c1)c1ccc(-n2cccn2)c(C#Cc2cccc(Cl)c2)c1 [TT-03322]	< 1000	< 1000
O=C(NCCN1C(=O)CSC1=O)c1ccc(-n2cccn2)c(C#Cc2cccnc2)c1 [TT-02938]	> 20000	> 20000
O=C(NCCCn1ccnc1)c1ccc(-n2cccn2)c(C#Cc2ccc(F)cc2)c1 [TT-02746]	< 1000	< 1000
CN1CCN(c2ccc(C(=O)NCCCc3cn[nH]c3)cc2C#Cc2ccc(F)cc2)CC1 [TT-03598]	< 1000	< 1000
Cc1nccn1CCN(C)C(=O)c1ccc(-n2cccn2)c(C#Cc2ccccc2)c1 [TT-02797]	> 20000	> 20000
Cc1nonc1CN(C)C(=O)c1ccc(-n2cccn2)c(C#Cc2ccccc2)c1 [TT-02800]	10000 to 20000	1000 to 5000
O=C1CC2CCC(CN1)N2c1ncc(C(=O)NCCCc2cn[nH]c2)cc1C#Cc1ccc(F)cc1 (stereo not shown) [TT-03765]	< 1000	< 1000
N#Cc1cccc(C#Cc2cc(C(=O)NCCCc3cn[nH]c3)ccc2-n2cccn2)c1 [TT-03357]	< 1000	< 1000
O=C(NCCCn1ccnc1)c1ccc(-n2cccn2)c(C#Cc2ccncc2)c1 [TT-03305]	< 1000	< 1000
CC1CC(C)CN(c2ncc(C(=O)NCCCc3cn[nH]c3)cc2C#Cc2ccc(F)cc2)C1 (stereo not shown) [TT-03761]	< 1000	
C[C@@H]1CN(c2ccc(C(=O)N[C@@H]3CC[C@@H](n4ccnc4)[C@@H]3O)cc2C#Cc2ccc(F)cc2)C[C@H](C)O1 [TT-03733]	< 1000	1000 to 5000
C[C@@H]1CN(c2ccc(C(=O)N3CC[C@H](O)[C@@H](n4ccnc4)CC3)cc2C#Cc2ccc(F)cc2)C[C@H](C)O1 [TT-03732]	< 1000	1000 to 5000
O=C(NCCN1CCCC1=O)c1ccc(-n2cccn2)c(C#Cc2ccccc2)c1 [TT-02929]	> 20000	> 20000
CN(C)CC1(O)CCN(c2ccc(C(=O)NCCCc3cn[nH]c3)cc2C#Cc2ccc(F)cc2)C1 (stereo not shown) [TT-03594]	< 1000	< 1000

SMILES	IC50 [1] [nM]	IC50 [2] [nM]
O=C(NCCCc1cn[nH]c1)c1ccc(N2CCNCC2)c(C#Cc2ccc(F)cc2)c1 [TT-03597]	< 1000	< 1000
O=C(NCc1ccco1)c1ccc(-n2cccn2)c(C#Cc2ccccn2)c1 [TT-02947]	> 20000	< 1000
O=C(NCc1ccco1)c1ccc(-n2cccn2)c(C#Cc2cccnc2)c1 [TT-02931]	> 20000	10000 to 20000
Cc1nn(-c2ccc(C(=O)NCCc3cnccn3)cc2C#Cc2ccccc2)c(C)c1C [TT-02942]	> 20000	5000 to 10000
O=C(NCCCc1cn[nH]c1)c1ccc(N2CCC3(CCCCC3)C2)c(C#Cc2ccc(F)cc2)c1 [TT-03590]	< 1000	< 1000
O=C(NCCCn1ccnc1)c1ccc(N2CCCC2)c(C#Cc2ccccc2)c1 [TT-02683]	< 1000	< 1000
O=C(NCCCc1cn[nH]c1)c1ccc(N2CCOCC2)c(C#Cc2ccccc2)c1 [TT-03232]	< 1000	< 1000
O=C(NCCCn1ccnc1)c1ccc(-n2cccn2)c(C#Cc2cccc(Cl)c2)c1 [TT-02749]	< 1000	< 1000
CC(CNC(=O)c1ccc(-n2cccn2)c(C#Cc2ccccc2)c1)n1cncn1 (stereo not shown) [TT-02930]	> 20000	> 20000
O=C(NCCc1nccs1)c1ccc(-n2cccn2)c(C#Cc2ccccc2)c1 [TT-02707]	> 20000	< 1000
O=C(NCCCc1cn[nH]c1)c1ccc(-n2cnnc2)c(C#Cc2ccc(F)cc2)c1 [TT-03634]	< 1000	< 1000
Cc1ccc(C#Cc2cc(C(=O)NCCCc3cn[nH]c3)ccc2-n2cccn2)cc1 [TT-03201]	< 1000	< 1000
O=C(c1ccc(-n2cccn2)c(C#Cc2ccccc2)c1)N1CCCC(Cn2ccnc2)C1 (stereo not shown) [TT-02796]	10000 to 20000	10000 to 20000
O=C(NCCCc1cn[nH]c1)c1ccc(-n2cccn2)c(C#Cc2ccncc2)c1 [TT-03304]	< 1000	< 1000
Cn1nnnc1SCCNC(=O)c1ccc(-n2cccn2)c(C#Cc2cccnc2)c1 [TT-02939]	> 20000	5000 to 10000
O=C(NCCCc1cn[nH]c1)c1ccc(-n2cccn2)c(C#Cc2ccccc2F)c1 [TT-03211]	< 1000	< 1000
Cn1nnnc1SCCNC(=O)c1ccc(-n2cccn2)c(C#Cc2ccccc2)c1 [TT-02928]	10000 to 20000	5000 to 10000
O=C(NCCCn1ccnc1)c1ccc(CN2CCc3ccccc3C2)cc1 [TT-01902]	10000 to 20000	5000 to 10000
CN(C)c1ccc(C(=O)NCCCc2cn[nH]c2)cc1C#Cc1ccccc1 [TT-03242]	< 1000	< 1000
O=C(NCCCn1ccnc1)c1ccc(-n2cnnc2)c(C#Cc2ccccc2)c1 [TT-02731]	< 1000	< 1000

SMILES	IC50 [1] [nM]	IC50 [2] [nM]
O=C(NCCCc1cn[nH]c1)c1cnc(N2CC[S+]([O-])CC2)c(C#Cc2ccc(F)cc2)c1 [TT-03782]	< 1000	< 1000
CC(C)(C)OC(=O)N1CCN(c2ccc(C(=O)NCCCc3cn[nH]c3)cc2C#Cc2ccc(F)cc2)CC1 [TT-03596]	< 1000	< 1000
O=C(NCCCn1ccnc1)c1ccc(-n2cccn2)cc1 [TT-03071]	1000 to 5000	1000 to 5000
O=C(NCCCc1cn[nH]c1)c1ccc(N2CCOC(CN3CCCCC3)C2)c(C#Cc2ccc(F)cc2)c1 (stereo not shown) [TT-03669]	< 1000	< 1000
O=C(NCCCc1ccccn1)c1ccc(-n2cccn2)c(C#Cc2cccnc2)c1 [TT-02941]	10000 to 20000	5000 to 10000
O=C(NCCc1c[nH]cn1)c1ccc(-n2cccn2)c(C#Cc2ccccc2)c1 [TT-02686]	5000 to 10000	10000 to 20000
O=C(NCCCn1ccnc1)c1ccc(-n2cccn2)c(C#Cc2cccc(O)c2)c1 [TT-03312]	< 1000	< 1000
O=C(NCCCc1cn[nH]c1)c1ccc(N2CCOCC2)c(C#Cc2ccncc2)c1 [TT-03631]	< 1000	< 1000
O=C(NCCn1cncn1)c1ccc(-n2cccn2)c(C#Cc2ccccc2)c1 [TT-02804]	> 20000	< 1000
O=C(NCCn1ccnc1)c1ccc(-n2cccn2)c(C#Cc2ccccc2)c1 [TT-02694]	> 20000	< 1000
C[C@@H]1CN(c2ccc(C(=O)NCCCc3cn[nH]c3)cc2C#Cc2ccc(F)cc2)C[C@H](C)O1 [TT-03670]	< 1000	< 1000
O=C(NCCCc1cn[nH]c1)c1ccc(-n2cccn2)c(C#Cc2ccc3nccn3c2)c1 [TT-03620]	< 1000	< 1000
CC1CN(c2ncc(C(=O)NCCCc3cn[nH]c3)cc2C#Cc2ccc(F)cc2)CCN1 (stereo not shown) [TT-03756]	< 1000	
CCc1nnc(NC(=O)c2ccc(-n3cccn3)c(C#Cc3ccccn3)c2)s1 [TT-02948]	> 20000	> 20000
O=C(NCCCc1cn[nH]c1)c1ccc(N2CCCC(CO)C2)c(C#Cc2ccc(F)cc2)c1 (stereo not shown) [TT-03595]	< 1000	< 1000
Cn1cnc(CNC(=O)c2ccc(-n3cccn3)c(C#Cc3ccccc3)c2)c1 [TT-02721]	> 20000	> 20000
COC1CCCN(c2ncc(C(=O)NCCCc3cn[nH]c3)cc2C#Cc2ccc(F)cc2)C1 (stereo not shown) [TT-03762]	< 1000	
CC1CN(c2ncc(C(=O)NCCCc3cn[nH]c3)cc2C#Cc2ccc(F)cc2)CCN1C(=O)OC(C)(C)C (stereo not shown) [TT-03772]	< 1000	
O=C(NCCCc1cn[nH]c1)c1cnc(N2CCOCC2)c(C#Cc2ccc(F)cc2)c1 [TT-03767]	< 1000	
